Several values for one entry are separate records, joined by “and”; a condition that tells them apart may be missing. Identical values can stand only once. Counter-ions that a name gives are not always drawn.
Experiments:
[1] = Dissolution studies of Lasofoxifene in organic solvents and surfactants; assay type: physicochemical; conditions: Lasofoxifene 1 mg/ml in the labelled solvent/surfactant; visual examination
[2] = as above; assay type: physicochemical; conditions: for Dissolution of Lasofoxifene in various organic solvents and surfactants, 2 mg/ml: Lasofoxifene 2 mg/ml in the labelled solvent/surfactant; for Dissolution of Lasofoxifene in various organic solvents and surfactants, 3 mg/ml: Lasofoxifene 3 mg/ml in the labelled solvent/surfactant
Procedure: The solubility of Lasofoxifene was investigated by screening various organic solvents and surfactants in increasing concentrations. The term “formulation” may refer to a pharmaceutical composition comprising […] pharmaceutically acceptable excipients.
First, 1 mg of Lasofoxifene was weighed into Eppendorf vessels and 500 μl of organic solvents and surfactants as listed in Table 20 were added. In cases of insufficient dissolution of the API, samples were treated with ultrasound for 30 min and, if necessary, heated to 50° C. while shaking (300 rpm). Afterwards, samples were examined visually regarding drug dissolution. In case of entire dissolution, the experiment was repeated with increasing drug concentrations until maximum dissolution was achieved. In addition, further organic solvents and surfactants were tested.

Uterine [3] = assay: Ovariectomized rat dosing frequency study: epithelium thickness, Uterine; assay type: in vivo; set-up: unit not given here; conditions: individual animals
Uterine [4] = assay: Ovariectomized rat dosing frequency study: mucification, Uterine (0-4 scale); assay type: in vivo; conditions: individual animals
vaginal epithelium [5] = assay: Ovariectomized rat dosing frequency study: thickness of the vaginal epithelium (H & E histomorphometry); assay type: in vivo; set-up: unit not given here; conditions: individual animals
Text: (§1) A total of 96 young, about 6-8 weeks old, female Sprague Dawley rats were used in this pilot study. The rats were randomized by body weight into six (6) per group and sixteen (16) groups. Ninety (N=90) of the animals were ovariectomized (OVX), and six (N=6) of the animals have a sham OVX surgery. One group of six (6) animals were terminated along with the sham-operated group at Day-14 post-OVX surgery. Three groups of eighteen (18) animals were respectively terminated along with the vehicle group at Day-14, Day-17 or Day-21 post-OVX surgery. The dosing regimens, starting on Day 14 post OVX, by inserting a capsule containing the desired Lasofoxifene formulations (e.g., Test Articles F-1-L, F-1-H, F-2-L, F-2-H) into vaginal tract under brief general anesthesia.
(§2) Rats were assigned to treatment groups by randomization in BioBook system (IDBS) based on the body weights. Grouping according to the below table 1. Each rat was dosed with ready to use solution, […] into vaginal tract with a syringe.
(§3) Annotation: Groups 1 (N=6): Day-0 vehicle; dose once at 100 μL on Day-0 at 14-day post OVX, and terminate at Day-14 post OVX. Groups 2 (N=6): Day-3 vehicle; dose once at 100 μL on Day-0 at 14-day post OVX, and terminate at Day-17 post OVX. Groups 3 (N=6): Day-7 vehicle; dose once at 100 μL on Day-0 at 14-day post OVX, and terminate at Day-21 post OVX. Groups 4 (N=6): Day-0 sham: terminate at Day-14 post sham-operation. Groups 5 (N=6): F-1-L; dose once at 0.3 μg/kg (100 μL) on Day-0 at 14-day post OVX, and terminated at Day-3 after dosing. Groups 6 (N=6): F-1-H; dose once at 3.0 μg/kg (100 μL) on Day-0 at 14-day post OVX, and terminated at Day-3 after dosing. Groups 7 (N=6): F-2-L; dose once at 0.3 μg/kg (100 μL) on Day-0 at 14-day post OVX, and terminated at Day-3 after dosing. Groups 8 (N=6): F-2-H; dose once at 3.0 μg/kg (100 μL) on Day-0 at 14-day post OVX, and terminated at Day-3 after dosing. Groups 9 (N=6): F-1-L; dose once at 0.3 μg/kg (100 μL) on Day-0 at 14-day post OVX, and terminated at Day-7 after dosing. Groups 10 (N=6): F-1-H; dose once at 3.0 μg/kg (100 μL) on Day-0 at 14-day post OVX, and terminated at Day-7 after dosing. Groups 11 (N=6): F-2-L; dose once at 0.3 μg/kg (100 μL) on Day-0 at 14-day post OVX, and terminated at Day-7 after dosing. Groups 12 (N=6): F-2-H; dose once at 3.0 μg/kg (100 μL) on Day-0 at 14-day post OVX, and terminated at Day-7 after dosing. Groups 13 (N=6): F-1-L; dose twice at respectively 0.3 μg/kg (100 μL) on Day-0 and Day-4 at 14-day and 18-day post OVX, and terminated at Day-7 after dosing. Groups 14 (N=6): F-1-H; dose twice at respectively 3.0 μg/kg (100 μL) on Day-0 and Day-4 at 14-day and 18-day post OVX, and terminated at Day-7 after dosing. Groups 15 (N=6): F-2-L; dose twice at respectively 0.3 μg/kg (100 μL) on Day-0 and Day-4 at 14-day and 18-day post OVX, and terminated at Day-7 after dosing. Groups 16 (N=6): F-2-H; dose twice at respectively 3.0 μg/kg (100 μL) on Day-0 and Day-4 at 14-day and 18-day post OVX, and terminated at Day-7 after dosing. Body Weight
(§4) All animals were humanely sacrificed by CO2 and the vaginal and uterine wet-weight were collected from each, and about 0.5 mL blood were collected for analysis of serum cholesterol level. Each uterus and vagina was weighed separately and was placed in 10% NBF for at least 48 hours before being sent to Histology Laboratory for tissue processing. The paraffin blocks of these tissues were sectioned, about 4-8 μm in thickness, and one section were stained with H & E for general microscopic evaluation, and one section were stained with PAS for assessment of mucification of the epithelium.
The H & E stained sections were used to measure the height of the vaginal epithelium at minimum of ten (10) sites per slide. Photomicrographs of the slides were included in the appendix or burned on a DVD disc to accompany the final report. […]

vaginal epithelium [6] = assay: Ovariectomized rat dosing frequency study: mucification of vaginal epithelium (PAS staining, 0-4 scale); assay type: in vivo; conditions: individual animals
Text: as §1, §2, §3, §4
The PAS stained sections were used to evaluate the amount of mucification by visual approximation on a 0-4 scale, with the 4 stands for the highest amount.
Data were analyzed using GraphPad Prism software (GraphPad Software, Inc., La Jolla, Calif., USA) and are expressed as the mean±SD. […]

Question: For `CCOC(=O)CC(CC(=O)OCC)(OC(C)=O)C(=O)OCC` [Triethyl acetyl citrate (TEAC), Triethyl acetyl citrate], which “Dissolution of Lasofoxifene in various organic solvents and surfactants, 1 mg/ml” value (from here on “Dissolution of Lasofoxifene … 1 mg/ml”) [1] is on record?
Answer: not dissolved

Question: For `CCOCCOCCO` [Transcutol (TC), Diethylene glycol monoethyl ether], which “Dissolution of Lasofoxifene in various organic solvents and surfactants, 2 mg/ml” value ([2]; visual examination) is on record?
Answer: dissolved

Question: What about the “Dissolution of Lasofoxifene in various organic solvents and surfactants, 3 mg/ml” value ([2]; visual examination) of the same molecule?
Answer: dissolved

Question: What about the “Dissolution of Lasofoxifene … 1 mg/ml” value [1] of the same molecule?
Answer: dissolved

Question: What does the source list for `Oc1ccc2c(c1)CC[C@H](c1ccccc1)[C@@H]2c1ccc(OCCN2CCCC2)cc1` [Lasofoxifene]?
Answer: Thickness, Uterine (Uterine [3]; group G3): 6 and 7 (3×) and 8 (2×); Thickness, Uterine (Uterine [3]; group G5): 9 (4×) and 8 (2×); Thickness, Uterine (Uterine [3]; group G6): 8 (3×) and 9 and 6 (2×); Thickness, Uterine (Uterine [3]; group G7): 8 (3×) and 7 (2×) and 9; Thickness, Uterine (Uterine [3]; group G8): 6 and 8 (2×) and 10 (2×) and 7; Thickness, Uterine (Uterine [3]; group G9): 7 (2×) and 9 (2×) and 6 (2×); Thickness, Uterine (Uterine [3]; group G10): 9 (3×) and 8 (2×) and 11; Thickness, Uterine (Uterine [3]; group G11): 5 and 7 (4×) and 9; Thickness, Uterine (Uterine [3]; group G12): 9 and 7 (3×) and 6 and 8; Thickness, Uterine (Uterine [3]; group G13): 6 (2×) and 7 and 8 (2×) and 9; Thickness, Uterine (Uterine [3]; group G14): 8 (3×) and 6 and 7 and 9; Thickness, Uterine (Uterine [3]; group G15): 9 and 8 (5×); Thickness, Uterine (Uterine [3]; group G16): 6 (2×) and 7 (3×) and 8; Mucification, Uterine (Uterine [4]; group G3): 0; Mucification, Uterine (Uterine [4]; group G5): 0; Mucification, Uterine (Uterine [4]; group G6): 0; Mucification, Uterine (Uterine [4]; group G7): 0; Mucification, Uterine (Uterine [4]; group G8): 0; Mucification, Uterine (Uterine [4]; group G9): 0; Mucification, Uterine (Uterine [4]; group G10): 0; Mucification, Uterine (Uterine [4]; group G11): 0; Mucification, Uterine (Uterine [4]; group G12): 0; Mucification, Uterine (Uterine [4]; group G13): 0; Mucification, Uterine (Uterine [4]; group G14): 0; Mucification, Uterine (Uterine [4]; group G15): 0; Mucification, Uterine (Uterine [4]; group G16): 0; Thickness of the vaginal epithelium, Vagina (vaginal epithelium [5]; group G3): 23 (2×) and 22 and 21 and 15 and 18; Thickness of the vaginal epithelium, Vagina (vaginal epithelium [5]; group G5): 26 and 30 and 32 (2×) and 27 and 16; Thickness of the vaginal epithelium, Vagina (vaginal epithelium [5]; group G6): 29 (2×) and 24 and 41 and 27 and 22; Thickness of the vaginal epithelium, Vagina (vaginal epithelium [5]; group G7): 27 and 18 and 21 and 20 (2×) and 17; Thickness of the vaginal epithelium, Vagina (vaginal epithelium [5]; group G8): 32 (2×) and 24 and 28 and 14 and 26; Thickness of the vaginal epithelium, Vagina (vaginal epithelium [5]; group G9): 21 and 15 (2×) and 25 and 17 and 18; Thickness of the vaginal epithelium, Vagina (vaginal epithelium [5]; group G10): 27 and 19 and 17 (2×) and 14 and 22; Thickness of the vaginal epithelium, Vagina (vaginal epithelium [5]; group G11): 17 (2×) and 20 and 15 and 25 and 19; Thickness of the vaginal epithelium, Vagina (vaginal epithelium [5]; group G12): 16 and 21 and 17 and 18 and 20 and 19; Thickness of the vaginal epithelium, Vagina (vaginal epithelium [5]; group G13): 20 (3×) and 18 and 23 and 19; Thickness of the vaginal epithelium, Vagina (vaginal epithelium [5]; group G14): 15 and 23 and 13 and 16 and 18 and 25; Thickness of the vaginal epithelium, Vagina (vaginal epithelium [5]; group G15): 21 and 22 and 23 (3×) and 25; Thickness of the vaginal epithelium, Vagina (vaginal epithelium [5]; group G16): 22 and 28 and 20 and 19 (2×) and 16; Mucification of vaginal epithelium, Vagina (vaginal epithelium [6]; group G3): 2 (4×) and 3 (2×); Mucification of vaginal epithelium, Vagina (vaginal epithelium [6]; group G5): 3 and 1 (3×) and 2 (2×); Mucification of vaginal epithelium, Vagina (vaginal epithelium [6]; group G6): 2 (2×) and 1 (4×); Mucification of vaginal epithelium, Vagina (vaginal epithelium [6]; group G7): 1 (2×) and 2 (4×); Mucification of vaginal epithelium, Vagina (vaginal epithelium [6]; group G8): 2 (2×) and 1 (3×) and 3; Mucification of vaginal epithelium, Vagina (vaginal epithelium [6]; group G9): 3 (3×) and 1 and 2 (2×); Mucification of vaginal epithelium, Vagina (vaginal epithelium [6]; group G10): 3 (3×) and 2 (3×); Mucification of vaginal epithelium, Vagina (vaginal epithelium [6]; group G11): 3 (2×) and 4 and 1 and 2 (2×); Mucification of vaginal epithelium, Vagina (vaginal epithelium [6]; group G12): 3 (4×) and 2 and 4; Mucification of vaginal epithelium, Vagina (vaginal epithelium [6]; group G13): 4 (4×) and 3 (2×); Mucification of vaginal epithelium, Vagina (vaginal epithelium [6]; group G14): 4 (3×) and 3 (3×); Mucification of vaginal epithelium, Vagina (vaginal epithelium [6]; group G15): 2 (2×) and 3 (4×); Mucification of vaginal epithelium, Vagina (vaginal epithelium [6]; group G16): 4 and 3 (4×) and 2

Question: Which “Dissolution of Lasofoxifene … 1 mg/ml” value [1] does the source give for `CCCCOC(=O)CC(CC(=O)OCCCC)(OC(C)=O)C(=O)OCCCC` [Tributyl acetyl citrate (TBAC), Tributyl acetyl citrate] here?
Answer: not dissolved

Question: Which results are given for `C[S+](C)[O-]` [DMSO, dimethyl sulfoxide]?
Answer: Dissolution of Lasofoxifene in various organic solvents and surfactants, 2 mg/ml ([2]; visual examination): dissolved; Dissolution of Lasofoxifene in various organic solvents and surfactants, 3 mg/ml ([2]; visual examination): dissolved; Dissolution of Lasofoxifene in various organic solvents and surfactants, 6 mg/ml ([2]; Lasofoxifene 6 mg/ml in the labelled solvent/surfactant, visual examination): dissolved; Dissolution of Lasofoxifene in various organic solvents and surfactants, 1 mg/ml [1]: dissolved

Question: With `OCC(O)CO` [Glycerol 99%, Glycerol] as the molecule, how does the “Dissolution of Lasofoxifene in various organic solvents and surfactants, 2 mg/ml” value ([2]; visual examination) read?
Answer: partially

Question: What about the “Dissolution of Lasofoxifene in various organic solvents and surfactants, 3 mg/ml” value ([2]; visual examination) of the same molecule?
Answer: not dissolved

Question: What about the “Dissolution of Lasofoxifene … 1 mg/ml” value [1] of the same molecule?
Answer: dissolved*

Question: Which “Dissolution of Lasofoxifene in more lipophilic excipients” value ([2]; in the labelled excipient) does the source give for `CCCCOC(=O)CC(O)(CC(=O)OCCCC)C(=O)OCCCC` [Tributyl citrate (TBC), Tributyl citrate] here?
Answer: could not be dissolved

Question: And the “Dissolution of Lasofoxifene … 1 mg/ml” value [1]?
Answer: not dissolved

Question: Which “Dissolution of Lasofoxifene … 1 mg/ml” value [1] does the source give for `CCCCCCCC/C=C\CCCCCCCC(=O)OCC` [Ethyloleate] here?
Answer: not dissolved

Question: For `CCOC(=O)CC(O)(CC(=O)OCC)C(=O)OCC` [Triethyl citrate (TEC), Triethyl citrate], which “Dissolution of Lasofoxifene … 1 mg/ml” value [1] is on record?
Answer: not dissolved

Source: patent publication US10857127B2, “Vaginal delivery systems containing selective estrogen receptor modulator (SERM) and uses thereof” (Azure Biotech, Inc., priority 2016, dated 2020)
